# Assay results from the pKa sets of Baltruschat and Czodrowski (2020).
# Settings: acidic group
row,Compound,pKa
1,CC(C)(C)OOCC(=O)O,3.49
2,O=[N+]([O-])c1ccccc1/C=N\O,10.7
3,N#CC(C#N)C(C#N)C#N,3.6
4,O=[N+]([O-])c1cc(C[NH+]2CCOCC2)c(O)c2ccccc12,3
5,O=C(O)/C=C/c1cccc(O)c1,4.4
6,CC(=O)c1ccc(O)cc1,7.9
7,Cc1nn(-c2ccccc2)c(O)c1-c1ccccc1,11.9
8,CCCC(=O)OO,8.2
9,O=C(O)c1cccc(-c2nnn[nH]2)c1,3.74
10,CC(C(N)=O)S(=O)(=O)NC(N)=O (stereo not drawn),5.21
11,CC1(C)[C@@H]2CC[C@]1(C)C(=O)C2C(=O)O (stereo partly drawn),3.76
12,COc1ccccc1O,9.7
13,CCC(Oc1ccccc1C)C(=O)O (stereo not drawn),3.43
14,O=C1COC(=O)C1I (stereo not drawn),2.31
15,[NH3+]CCCCCC(=O)O,4.37
16,O=C(O)CCC(=O)c1cccc2ccccc12,4.48
17,CC(C)(C)O,17
18,O=C1Cc2cc(O)ccc21,7.24
19,Nc1ccccc1B(O)O,9.23
20,Cc1ccc(S(=O)(=O)NCCC(=O)[O-])cc1,11.2
21,C[N+](C)(C)c1cccc(O)c1,8.07
22,Cc1ccc2c(c1[O-])-c1c-2ccc(C)c1O,11.5
23,CCCCCCCCCCCNCc1ccc(C)cc1,9.46
24,[NH3+]C(Cc1c[nH]c2ccccc12)C(=O)O (stereo not drawn),2.48
25,Cc1ccc(O)c(C)c1,10.6

row,Compound,pKa
1,O=C(O)c1csc([N+](=O)[O-])c1,3.24
2,COc1cc(C[NH+](C)C)c(O)c(C[NH+](C)C)c1,6.33
3,O=C1CC(=O)CS(=O)(=O)C1,2.72
4,O=C(O)Cn1ccc2ccccc21,3.4
5,[NH3+]c1ccccc1C(=O)O,2.08
6,Oc1ccc(I)cc1,9.32
7,O=C(O)c1cc(Br)cs1,3.11
8,O=C(O)C1CCCC[NH2+]1 (stereo not drawn),2.5
9,Cc1nc(-c2ccccc2[S-])[nH]c1C,9
10,CC(C)Oc1ccc(C(=O)O)cc1,4.57
11,O=S(=O)(Nc1cccc(F)c1)c1ccccc1,7.54
12,CC(C)(C)c1ccc(-c2c(O)c2=O)cc1,2.21
13,O=C(O)c1cccc(Br)c1,3.79
14,Cc1cccc(CN(C)C)c1O,11.1
15,C=CC(O)OCC(C)O (stereo not drawn),5.5
16,O=C(O)CSc1[nH]c2cc3ccccc3cc2[nH+]1,1.9
17,Fc1ccc(NC(=S)c2ccccc2)cc1,10.8
18,C[n+]1ccc2ccccc2c1S,-2.13
19,O=C(O)COc1ccccc1,3.15
20,CCCCCOc1ccc(O)cc1,10.2
21,Cc1cc(N)ccc1S(=O)(=O)Nc1nccs1,7.3
22,Cc1cc(C)cc(C(=O)O)c1,4.3
23,O=C(O)C[NH+](CC(=O)O)Cc1cc(Cl)cc(C[NH+](CC(=O)O)CC(=O)O)c1O,2
24,CC(=O)c1ccccc1NN=C(C(=O)c1ccccc1)C(=O)c1ccccc1,9.2
25,Oc1cccc2cncnc12,8.65

row,Compound,pKa
1,O/N=C1C=C/C(=N\O)c2cccnc2/1,10
2,COc1cccc(/C=C/C(=O)O)c1,4.38
3,[NH3+]CCCCCCNC(=S)S,2.95
4,O=[N+]([O-])c1ccc([O-])c(O)c1,10.9
5,O=C(C1=C(O)C(=O)c2ccccc2C1=O)c1ccccc1,2.17
6,Nc1ccc(S(=O)(=O)Nc2nccs2)c(Cl)c1,6.95
7,CCS(=O)O,2.27
8,O=c1[nH]c2ccccc2nc1[O-],12.3
9,Oc1cccc(Cl)c1,8.96
10,Nc1c2ccccc2[nH+]c2cccc(O)c12,5.61
11,Brc1ccc([P+](c2ccccc2)(c2ccccc2)C2c3ccccc3-c3ccccc32)cc1,8.67
12,N#Cc1ccc(C(=O)O)cc1,3.53
13,OC(c1ccncc1)(c1ccncc1)c1ccncc1,11.8
14,O=[N+]([O-])c1cc(Cl)ccc1[Se]O,10.2
15,CC[NH+](CC)Cc1cccc(F)c1O,7.26
16,CSc1ncnc2[nH]ncc12,9.65
17,CCCCOc1ccc(C(=O)O)cc1,4.48
18,CCOC(=O)C[N+](=O)[O-],5.82
19,Fc1cccc(NC(=S)c2ccc(Cl)cc2)c1,10.2
20,O=C1C=CC(=Nc2ccc(O)cc2)C=C1,8.1
21,Cc1cc(O)c(=O)ccc1Br,6.6
22,Cc1ccc2ccc(O)cc2c1,9.52
23,Cc1c(C)c(O)c(C)c(C)c1O,11.3
24,Oc1cc[nH+]nc1,1.07

# Same assay, conditions: basic group
row,Compound,pKa
1,Cc1cc(-c2ccccc2)n[n+](CCN2CCOCC2)c1N,4.84
2,O=C([O-])c1cnc2ccccc2c1,4.68
3,c1ccc(NC2CCCCC2)cc1,5.6
4,[NH3+]C1CCN(Cc2ccccc2)CC1,7.05
5,C[NH+](C)CCCCNc1ccnc2cccc([N+](=O)[O-])c12,6.71
6,CCc1cnc2c(ccc3cccnc32)c1,4.98
7,CNc1ccncn1,6.12
8,Cc1ccno1,2.3
9,OC[C@H]1CCN2CCC[C@@H]12,10.9
10,CC/N=c1\sc(-c2ccccc2)nn1CC,6.7
11,N#Cc1ccccc1N,0.95
12,CCCCCCN(CCCCCC)c1ccccc1,4.89
13,N/C(CC(N)c1ccccc1)=N\O (stereo not drawn),8
14,c1ccc2nc3ccccc3nc2c1,1.31
15,O=[N+]([O-])c1ccc(/C=C/c2nnnn2-c2ccc([N+](=O)[O-])cc2)cc1,-3.15
16,CCN(CC)CCCCNc1ccnc2ccccc12,10.2
17,CCN(CC)c1ccccc1C,7.18
18,Nc1ccccc1B(O)O,4.58
19,NCc1ccc(O)c(O)c1,8.6
20,CCc1nc(C)c[nH]1,8.5
21,c1ccc2nccnc2c1,0.64
22,CCCSCCN,9.43
23,Nc1ccnc2c1ncn2CCOCP(=O)(O)O,5.49
24,O=C([O-])[C@@H](O)Cc1c[nH]cn1,7.32
25,Cc1noc(-c2ccccc2)c1C(=O)O,1.7

row,Compound,pKa
1,COc1ccccc1/C(=N/CCCN(C)C)c1ccccc1,9
2,[SH2+]c1ccc2ncccc2c1,3.95
3,CCNN(C)C,6.58
4,CC1(C)CN1,5.37
5,COc1cccc2cccnc12,4.88
6,CC[NH+](CC)CCCC(C)Nc1ccnc2ccc(OC)cc12 (stereo not drawn),8.7
7,CC1(C)[C@@H](N)[C@@H]1N,8.96
8,Cc1ccccc1/C(=N\CCC[NH+](C)C)c1ccccc1N,3.82
9,Nc1cccc2ccc([N+](=O)[O-])cc12,2.83
10,Brc1ccnc2c1ccc1cccnc12,4.03
11,C1CNCCNCCCNCCNC1,11.1
12,Cc1c[nH]c(C)n1,8.39
13,C#C[C@]1(O)C[C@H](C)N(C)[C@@H]2CCCC[C@H]21,9.22
14,COc1cnc2ccccc2n1,0.28
15,C[NH2+]CC(=O)NCCc1c[nH]cn1,6.77
16,N[C@H]1CCCC[C@@H]1C(=O)[O-],10.1
17,Cc1ccc(C2=NCCC2)cc1,6.41
18,C[C@H]1CC[C@@H]2CCCN21,11.7
19,CC[NH+](CC)[C@H]1CCC[C@@H]1N(C)C,5.76
20,CN[C@H]1C(C)[C@@H]1NC (stereo partly drawn),9.03
21,NCCCC[NH3+],9.36
22,CSc1ccc(N)c(Cl)c1,2.56
23,Cc1nc2ccccc2n(C)c1=O,0.51
24,Cc1cccc(CN(C)C)c1O,8.18
25,c1ccc(-c2ncc[nH]2)cc1,6.39

row,Compound,pKa
1,CCC1=NCCC1,7.91
2,C[NH+]1CCCC1c1cncc2[nH]c3ccccc3c12 (stereo not drawn),5.17
3,Cc1cc(CN)c(O)c(CN)c1,9.7
4,Clc1nc2cc3c(cc2[nH]1)CCCC3,2.68
5,CC[NH+](CC)CCCC(C)Nc1ccnc2ccccc12 (stereo not drawn),8.81
6,CC1(C)CC(=O)C=C(N2CCCC2)C1,3.15
7,OCCNC1CCN(Cc2ccccc2)CC1,9.24
8,c1ccc(-c2ccc3ncc(CN4CCOCC4)n3n2)cc1,6.21
9,COc1ccc(OC)c2c1nc(CCl)n2C,4.1
10,c1ccc(C2CN2)cc1 (stereo not drawn),6.47
11,Nc1ccc(Cl)cc1,3.96
12,c1ccc2c(c1)nnc1ccccc12,2.2
13,Oc1cccc2cncnc12,3.41
14,C[n+]1ccccc1-c1ccccn1,0.31
15,O/N=C1C=C/C(=N\O)c2cccnc2/1,3.7
16,CN(C(=O)c1ccccc1)c1cccnc1,3.66
17,CO/N=C(\C)CC(C)(C)NCC[NH2+]C(C)(C)C/C(C)=N/O,6.28
18,Cc1cc(N)nc(N)n1,7.65
19,O=C([O-])C1CCN1 (stereo not drawn),9.54
20,CCSCCN,9.48
21,C[C@H]1[C@@H](N)[C@@H](C)[C@@H](N)[C@@H](C)[C@H]1N,7.83
22,CCCN(CCO)CC(C)O (stereo not drawn),8.9
23,Cc1ccccc1/N=C/N(C)C,8.27
24,O=C1C[C@H]2OCC(S(=O)(=O)[O-])=C3CN4CC[C@@]56c7ccccc7N1[C@@H]5[C@@H]2[C@@H]3C[C@@H]46,7.54
25,NNC=O,2.81

row,Compound,pKa
1,CC(CC(C#N)(c1ccccc1)c1ccccc1)N1CCOCC1 (stereo not drawn),6.1
2,N#Cc1cc(-c2ccccc2)nnc1NCCN1CCOCC1,6.5
3,C[Si](C)(C)c1ccc(N)cc1,4.36
4,C/C=C(/C)C(=O)O[C@H]1CC[C@@]2(C)[C@@H]3CC[C@H]4[C@]5(O)C[C@H](O)[C@@]6(O)[C@@H](CN7C[C@@H](C)CC[C@H]7[C@@]6(C)O)[C@]5(O)C[C@@]42O[C@]13O,8.85
5,CNNC1CC[NH+](C(C)C)CC1,6.2
6,Cc1cc(-c2ccccc2)nn2c(C[NH+]3CCOCC3)cnc12,2.9
7,Cc1ccc(C[NH3+])cc1N,4.26
8,Cc1cnc(N)s1,5.71
9,Nc1cncnc1,2.83
10,NCCOCCO,9.43
11,CCCCCN(CC(C)O)CC(C)O (stereo not drawn),9
12,COc1ccc(CN)cc1N,9.77
13,OCC1CN2CCC1CC2 (stereo not drawn),10.6
14,N[C@H]1CCC[C@H](O)C1,10.1
15,CCCCCN,10.7
16,CSc1ncnc2[nH]ncc12,1
17,Cc1nc(-c2ccccc2SCc2ccccc2)[nH]c1C,7
18,O=Cc1ccc2ccccc2n1,3.1
19,Cc1cc(C)n(-c2ccccn2)n1,1.89
20,N=C(c1ccccc1)c1ccc(O)cc1,6.45
21,Nc1cccc2nnn([C@@H]3C[C@@H](O)[C@H](CO)O3)c12,1.8
22,CC(C)N[C@H](c1ccccc1)[C@H](O)c1ccccc1,11.8
23,Cc1cc(N)cc(C)c1C(=O)NCCN1CCOCC1,5.96
24,Nc1cccc([NH3+])c1O,2.7
